Test results: patent publication US6833378B2, “Corticotropin releasing factor antagonists” (Pfizer Inc, priority 2000, dated 2004)
Counter-ions that a name gives are not always drawn.

Point of comparison: CCC(Nc1cc(C)nc(Oc2c(C)cc(OC)cc2C)c1C(=O)NC)C(C)OC (centres unmarked) [Example 284, 4-(1-Ethyl-2-methoxy-propylamino)-2-(4-methoxy-2,6-dimethyl-phenoxy)-6,N-dimethyl-nicotinamide], melting point 122.6 °C. Against it:
- CCC(CC)Oc1cc(C)nc(Nc2c(C)cc(C)cc2C)c1C(=O)n1ccnc1 [Example 70, [4-(1-Ethyl-propoxy)-6-methyl-2-(2,4,6-trimethyl-phenylamino)-pyridin-3-yl]-imidazol-1-yl-methanone] — lower, 120 to 122 °C
- CCC(CC)Oc1cc(C)nc2c1[nH]c(=O)n2-c1c(C)cc(C)cc1C [Example 166, 7-(1-Ethyl-propoxy)-5-methyl-3-(2,4,6-trimethyl-phenyl)-1,3-dihydro-imidazo[4,5-b]pyridin-2-one] — higher, 184 to 186 °C
- CCC(CC)Oc1cc(C)nc(Nc2c(C)cc(C)cc2C)c1CNC(=O)CCl [Example 75, 2-Chloro-N-[4-(1-ethyl-propoxy)-6-methyl-2-(2,4,6-trimethyl-phenylamino)-pyridin-3-ylmethyl]-acetamide] — higher, 142 to 144 °C
- C#CC(CC)Nc1cc(C)nc(Oc2c(C)cc(C)cc2C)c1C(=O)O (centres unmarked) [Example 27, 4-(1-Ethyl-prop-2-ynylamino)-6-methyl-2-(2,4,6-trimethyl-phenoxy)-nicotinic acid] — higher, 131 to 133 °C
- CCC(CC)Nc1cc(C)nc(Oc2c(C)cc(C)nc2C)c1C(N)=O [Example 287, 4-(1-Ethyl-propylamino)-6-methyl-2-(2,4,6-trimethyl-pyridin-3-yloxy)-nicotinamide] — higher, 164.3 °C
- CCC(COC)Nc1cc(C)nc(Oc2ccc(OC(F)(F)F)cc2)c1[N+](=O)[O-] (centres unmarked) [Example 1, (1-Methoxymethyl-propyl)-[6-methyl-3-nitro-2-(4-trifluoromethoxy-phenoxy)-pyridin-4-yl]-amine] — lower, 75 to 76 °C
- CCC(CC)Oc1nc(C)nc(Nc2c(C)cc(C)cc2C)c1C(=O)O [Example 160, 4-(1-Ethyl-propoxy)-2-methyl-6-(2,4,6-trimethyl-phenylamino)-pyrimidine-5-carboxylic acid] — lower, 118 to 120 °C
- CCC(CC)Oc1cc(C)nc2c1n(C)c(=O)n2-c1c(C)cc(C)cc1C [Example 167, 7-(1-Ethyl-propoxy)-1,5-dimethyl-3-(2,4,6-trimethyl-phenyl)-1,3-dihydro-imidazo[4,5-b]pyridin-2-one] — higher, 151 to 153 °C
- CCC(CC)Oc1nc(C)nc(Nc2c(C)cc(C)cc2C)c1C(N)=O [Example 120, 4-(1-Ethyl-propoxy)-2-methyl-6-(2,4,6-trimethyl-phenylamino)-pyrimidine-5-carboxylic acid amide] — higher, 174 to 176 °C
- CCC(CC)Nc1cc(C)nc(Oc2c(C)cc(C)cc2C)c1NC(=O)CCCl [Example 2, 3-Chloro-N-[4-(1-ethyl-propylamino)-6-methyl-2-(2,4,6-trimethyl-phenoxy)-pyridin-3-yl]-propionamide] — higher, 183 to 185 °C
- CCC(CC)Nc1cc(C)nc(Nc2c(C)cc(C)cc2C)c1C(N)=O [Example 119, 4-(1-Ethyl-propylamino)-6-methyl-2-(2,4,6-trimethyl-phenylamino)-nicotinamide] — higher, 204 to 206 °C
- CCC(CC)Nc1cc(C)nc(Oc2c(C)cc(C)cc2C)c1NC(=O)C(C)Cl (centres unmarked) [Example 2, 2-Chloro-N-[4-(1-ethyl-propylamino)-6-methyl-2-(2,4,6-trimethyl-phenoxy)-pyridin-3-yl]-propionamide] — higher, 170 to 172 °C
- CCC(O)C(CC)Nc1cc(C)nc(Oc2c(C)cc(Cl)cc2C)c1CO (centres unmarked) [Example 26, 4-[2-(4-Chloro-2,6-dimethyl-phenoxy)-3-hydroxymethyl-6-methyl-pyridin-4-ylamino]-hexan-3-ol] — higher, 145 to 148 °C
- CCC(CC)Nc1cc(C)nc2c1nc(N)n2-c1c(C)cc(C)cc1C [Example 170, N7-(1-Ethyl-propyl)-5-methyl-3-(2,4,6-trimethyl-phenyl)-3H-imidazo[4,5-b]pyridine-2,7-diamine] — higher, 158 to 160 °C
- Cc1cc(C)c(Oc2nc(C)cc(C(O)C(F)(F)F)c2C)c(C)c1 (centres unmarked) [Example 99, 1-[3,6-Dimethyl-2-(2,4,6-trimethyl-phenoxy)-pyridin-4-yl]-2,2,2-trifluoro-ethanol] — higher, 134 to 139 °C
- CCC(CC)Oc1cc(C)nc(Nc2c(C)cc(C)cc2C)c1CC(C(=O)OC)C(=O)OC [Example 72, 2-[4-(1-Ethyl-propoxy)-6-methyl-2-(2,4,6-trimethyl-phenylamino)-pyridin-3-ylmethyl]-malonic acid dimethyl ester] — lower, 96 to 98 °C
- CCC(CC)Oc1nc(C)nc(Nc2c(C)cc(C)cc2C)c1CO [Example 161, [4-(1-Ethyl-propoxy)-2-methyl-6-(2,4,6-trimethyl-phenylamino)-pyrimidin-5-yl]-methanol] — not separable, 121 to 123 °C
- CCC(CC)Oc1cc(C)nc(Nc2c(C)cc(C)cc2C)c1CN(C)C.Cl — lower, 85 to 88 °C
- CCC(Nc1cc(C)nc(Oc2c(C)cc(Cl)cc2C)c1CO)C(C)O (centres unmarked) [Example 25, 3-[2-(4-Chloro-2,6-dimethyl-phenoxy)-3-hydroxymethyl-6-methyl-pyridin-4-ylamino]-pentan-2ol] — higher, 180 to 182 °C
- CCC(CC)Oc1cc(C)nc(Oc2c(C)cc(C)cc2C)c1[N+](=O)[O-] [Example 60, 4-(1-Ethyl-propoxy)-6-methyl-3-nitro-2-(2,4,6-trimethyl-phenoxy)-pyridine] — lower, 106 to 109 °C
- CC[C@H]1COC(=O)N1c1cc(C)nc(Oc2c(C)cc(Cl)cc2C)c1C(=O)OC [Example 18, 2-(4-Chloro-2,6-dimethyl-phenoxy)-4-(S)-(4-ethyl-2-oxo-oxazolidin-3-yl)-6-methyl-nicotinic acid methyl ester] — higher, 144 to 145.5 °C
- CCC(CC)Nc1cc(C)nc(Nc2c(C)cc(C)cc2C)c1CC(C(=O)OC)C(=O)OC [Example 129, 2-[4-(1-Ethyl-propylamino)-6-methyl-2-(2,4,6-trimethyl-phenylamino)-pyridin-3-ylmethyl]-malonic acid dimethyl ester] — higher, 136 to 138 °C
- CCC(CC)Nc1cc(C)nc(Oc2c(C)cc(OC)cc2C)c1C(N)=O [Example 262, 4-(1-Ethyl-propylamino)-2-(4-methoxy-2,6-dimethyl-phenoxy)-6-methyl-nicotinamide] — higher, 184 °C
- CCC(CC)Oc1cc(C)nc(Nc2c(C)cc(C)cc2C)c1C(N)=O (as salt: HCl) [Example 78, 4-(1-Ethyl-propoxy)-6-methyl-2-(2,4,6-trimethyl-phenylamino)-nicotinamide] — higher, 185 to 187 °C
- CCC(CC)Oc1cc(C)nc(Nc2c(C)cc(C)cc2C)c1C(=O)N(C)C (as salt: HCl) [Example 80, 4-(1-Ethyl-propoxy)-6,N,N-trimethyl-2-(2,4,6-trimethyl-phenylamino)-nicotinamide] — higher, 197 to 200 °C
- CCC(CC)Oc1cc(C)nc(Nc2c(C)cc(C)cc2C)c1 [Example 90, [4-(1-Ethyl-propoxy)-6-methyl-pyridin-2-yl]-(2,4,6-trimethyl-phenyl)-amine] — lower, 98 to 100 °C
- CCC(CC)Oc1cc(C)nc(Nc2c(C)cc(C)cc2C)c1NC(=O)CCl [Example 124, 2-Chloro-N-[4-(1-ethyl-propoxy)-6-methyl-2-(2,4,6-trimethyl-phenylamino)-pyridin-3-yl]-acetamide] — lower, 79 to 82 °C
- CCC(COC)Nc1cc(C)nc(Oc2c(OC)cc(OC)cc2OC)c1[N+](=O)[O-] (centres unmarked) [Example 1, (1-Methoxymethyl-propyl)-[6-methyl-3-nitro-2-(2,4,6-trimethoxy-phenoxy)-pyridin-4-yl]-amine] — higher, 126.8 to 129.5 °C
- CCC(COC)Nc1cc(C)nc(Oc2c(C=O)cccc2OC)c1[N+](=O)[O-] (centres unmarked) [Example 1, 3-Methoxy-2-[4-(1-methoxymethyl-propylamino)-6-methyl-3-nitro-pyridin-2-yloxy]-benzaldehyde] — higher, 126.5 to 130.5 °C
- CCC(CC)Nc1cc(C)nc(Oc2c(C)cc(C)cc2C)c1CN [Example 135, [3-Aminomethyl-6-methyl-2-(2,4,6-trimethyl-phenoxy)-pyridin4-yl]-(1-ethyl-propyl)-amine] — lower, 117 to 119 °C
- CCOC(=S)SCc1c(OC(CC)CC)cc(C)nc1Nc1c(C)cc(C)cc1C [Example 77, Dithiocarbonic acid O-ethyl ester S-[4-(1-ethyl-propoxy)-6-methyl-2-(2,4,6-trimethyl-phenylamino)-pyridin-3-ylmethyl] ester] — lower, 55 to 57 °C
